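Values below derive from 48-hour exposures of cells grown in 96-well plates, with endpoints linearly interpolated between the two concentrations bracketing the appropriate inhibition level. GI50 is the concentration that inhibits growth by half.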 Activity calls are given as the source filed them. Cut-off read from the data, not from the text of the source: active = GI50 up to about 1.1 µM and inactive = higher.
Key:
Assay in all cases: NCI tumour cell line growth inhibition, 48 h
A549 = tested on: A549
COLO 205 = tested on: COLO 205
DLD-1 = tested on: DLD-1
EKVX = tested on: EKVX
HCT-116 = tested on: HCT-116
MOLT-4 = tested on: MOLT-4
Malme-3M = tested on: Malme-3M
NCI-H522 = tested on: NCI-H522
OVCAR-4 = tested on: OVCAR-4
OVCAR-8 = tested on: OVCAR-8
SF-295 = tested on: SF-295
SK-OV-3 = tested on: SK-OV-3
SN12C = tested on: SN12C
SNB-75 = tested on: SNB-75
SR = tested on: SR
UACC-257 = tested on: UACC-257

Measured: GI50

O=c1[nH]c2ccccc2cc1C(Cl)=C(Cl)Cl
inactive: A549 > 100 µM | COLO 205 > 100 µM | DLD-1 > 100 µM | EKVX 35.7 µM | HCT-116 > 100 µM | MOLT-4 > 100 µM | Malme-3M > 100 µM | NCI-H522 > 100 µM | OVCAR-4 > 100 µM | OVCAR-8 > 100 µM | SF-295 > 100 µM | SK-OV-3 > 100 µM | SN12C > 100 µM | SNB-75 35.2 µM | SR > 100 µM | UACC-257 > 100 µM

Oc1nc(-c2ccccc2)cc(-c2ccccc2O)n1
inactive: A549 83.4 µM | COLO 205 > 100 µM | DLD-1 > 100 µM | EKVX 6.71 µM | HCT-116 83.4 µM | MOLT-4 67 µM | Malme-3M > 100 µM | NCI-H522 69.3 µM | OVCAR-4 > 100 µM | OVCAR-8 > 100 µM | SF-295 > 100 µM | SK-OV-3 > 100 µM | SN12C 95.5 µM | SNB-75 43.9 µM | SR > 100 µM | UACC-257 > 100 µM

N/C(=N\O)N/N=C/c1ccc(O)c(O)c1
inactive: A549 > 100 µM | COLO 205 > 100 µM | DLD-1 > 100 µM | EKVX > 100 µM | HCT-116 > 100 µM | MOLT-4 > 100 µM | Malme-3M > 100 µM | NCI-H522 > 100 µM | OVCAR-4 > 100 µM | OVCAR-8 > 100 µM | SF-295 > 100 µM | SK-OV-3 > 100 µM | SN12C > 100 µM | SNB-75 > 100 µM | SR > 100 µM | UACC-257 > 100 µM

Cc1c(Cl)cccc1NC(=O)C(=O)c1c(O)c2ccc(O)cc2oc1=O
inactive: A549 > 100 µM | COLO 205 > 100 µM | DLD-1 > 100 µM | EKVX > 100 µM | HCT-116 > 100 µM | MOLT-4 > 100 µM | Malme-3M > 100 µM | NCI-H522 > 100 µM | OVCAR-4 > 100 µM | OVCAR-8 > 100 µM | SF-295 > 100 µM | SK-OV-3 > 100 µM | SN12C > 100 µM | SNB-75 > 100 µM | SR > 100 µM | UACC-257 > 100 µM

CCCN(CCC)c1c([N+](=O)[O-])cc(S(N)(=O)=O)cc1[N+](=O)[O-] [ORYZALIN]
inactive: A549 16.4 µM | COLO 205 21.8 µM | DLD-1 19.1 µM | EKVX 21.3 µM | HCT-116 18 µM | MOLT-4 20.7 µM | Malme-3M 17.7 µM | NCI-H522 16.7 µM | OVCAR-4 14 µM | OVCAR-8 19.1 µM | SF-295 16.7 µM | SK-OV-3 17.4 µM | SN12C 17.4 µM | SNB-75 18.3 µM | SR 23.5 µM | UACC-257 18.9 µM

C=CCN1/C(=C2\SC(=S)N(c3ccc(C)cc3)C2=O)Sc2c1ncn(C)c2=O
inactive: A549 > 100 µM | COLO 205 96.8 µM | DLD-1 > 100 µM | EKVX 69 µM | HCT-116 > 100 µM | MOLT-4 > 100 µM | NCI-H522 46.7 µM | OVCAR-4 94.2 µM | OVCAR-8 95.1 µM | SF-295 90.8 µM | SK-OV-3 > 100 µM | SN12C > 100 µM | SNB-75 40.7 µM | SR 84.7 µM | UACC-257 > 100 µM

O=C1C(c2ccccc2)=C(c2ccccc2)C(c2ccc(Sc3ccc(C4=C(c5ccccc5)C(=O)C(c5ccccc5)=C4c4ccccc4)cc3)cc2)=C1c1ccccc1
inactive: A549 > 100 µM | COLO 205 > 100 µM | DLD-1 > 100 µM | EKVX > 100 µM | HCT-116 > 100 µM | MOLT-4 > 100 µM | Malme-3M > 100 µM | NCI-H522 > 100 µM | OVCAR-4 > 100 µM | OVCAR-8 > 100 µM | SF-295 > 100 µM | SK-OV-3 > 100 µM | SN12C > 100 µM | SNB-75 31.3 µM | SR > 100 µM | UACC-257 > 100 µM

CC(CCC[C@H](C)CO)[C@H]1[C@@H](O)C(O)C2[C@@H]3C[C@@H](O)C4(O)C[C@@H](O)CC[C@]4(C)C3CC[C@@]21C (some centres undefined)
inactive: A549 > 100 µM | COLO 205 > 100 µM | DLD-1 > 100 µM | EKVX > 100 µM | HCT-116 > 100 µM | MOLT-4 > 100 µM | Malme-3M > 100 µM | NCI-H522 > 100 µM | OVCAR-4 > 100 µM | OVCAR-8 > 100 µM | SF-295 > 100 µM | SK-OV-3 > 100 µM | SN12C > 100 µM | SNB-75 > 100 µM | SR 36 µM | UACC-257 > 100 µM

C/C(=N/N(C=O)C[n+]1ccccc1)C(CN(CC(C)C)CC(C)C)C(=O)Nc1ccc(C)cc1C (centres undefined)
inactive: A549 > 100 µM | COLO 205 > 100 µM | DLD-1 > 100 µM | EKVX 17.8 µM | HCT-116 > 100 µM | MOLT-4 > 100 µM | Malme-3M > 100 µM | NCI-H522 > 100 µM | OVCAR-4 > 100 µM | OVCAR-8 > 100 µM | SF-295 71.8 µM | SK-OV-3 > 100 µM | SN12C > 100 µM | SR 84.1 µM | UACC-257 > 100 µM

CCOc1ccccc1/N=N/c1c(-c2ccccc2)nn(C(=O)CC(=O)Nc2cccc(Cl)c2)c1-c1ccccc1
inactive: A549 54 µM | COLO 205 > 100 µM | DLD-1 20.4 µM | EKVX 41.1 µM | HCT-116 35.1 µM | MOLT-4 51.6 µM | Malme-3M > 100 µM | NCI-H522 40.5 µM | OVCAR-4 23.1 µM | OVCAR-8 63.5 µM | SF-295 50.4 µM | SK-OV-3 > 100 µM | SN12C 40.4 µM | SNB-75 33.8 µM | SR 61 µM | UACC-257 98.2 µM

O=C(CCCNC(=O)OCc1ccccc1)OCc1ccc2c(c1)C(=O)c1ccccc1C2=O
inactive: A549 > 100 µM | COLO 205 > 7.6 µM | DLD-1 > 100 µM | EKVX > 100 µM | HCT-116 > 100 µM | MOLT-4 > 100 µM | Malme-3M > 100 µM | NCI-H522 > 100 µM | OVCAR-4 > 100 µM | OVCAR-8 47.9 µM | SF-295 11.3 µM | SK-OV-3 29.6 µM | SN12C > 10.2 µM | SNB-75 20 µM | SR > 100 µM | UACC-257 > 100 µM
